This is an account of results in ChEMBL document CHEMBL4000252, “Discovery of N-(2-aminoethyl)-N-benzyloxyphenyl benzamides: New potent Trypanosoma brucei inhibitors” (Bioorg Med Chem, 2017).

In general, CC50 refers to the concentration giving 50% cytotoxicity. By Cmax is commonly meant the peak of the concentration-time curve. The AUC(0-t) is the area under the concentration-time curve up to a stated or last time point. A low value points to less exposure. As a reminder, the EC50 is the midpoint of the concentration-response curve. The term IC50 denotes the concentration needed to halve the response being measured.

Data set [1] concerns Trypanosoma brucei brucei. In words: Antiparasitic activity against Trypanosoma brucei brucei TREU667 infected in mouse assessed as decrease in parasitemia at 50 mg/kg, bid administered via oral gavage on day 21 to 34 post infection measured on day 36 by microscopic method. The class given is functional, organism-based.
Data set [2] is described as follows: Cytotoxicity against human CRL8155 cells assessed as growth inhibition after 48 hrs by Alamar blue assay. The class given is cell-based. The note with it: crl8155, 48 h. (In general: Resazurin is reduced to fluorescent resorufin, in cell work by metabolically active cells.)
Data set [3] has as its system Trypanosoma brucei brucei. In words: Antiparasitic activity against Trypanosoma brucei brucei BF427 assessed as growth inhibition at 8 times EC50 pretreated for 48 hrs followed by compound washout measured after 10 days by light microscopic method. The class given is functional.
The test system of data set [4] is Trypanosoma brucei brucei. Kind of data set: Antiparasitic activity against Trypanosoma brucei brucei BF427 assessed as growth inhibition at 8 times EC50 pretreated for 72 hrs followed by compound washout measured after 10 days by light microscopic method. In kind it is functional.
For another data set, the system named is HepG2. In words: Cytotoxicity against human HepG2 cells assessed as growth inhibition after 48 hrs by Alamar blue assay. The class given is cell-based. To be noted: hepg2, 48 h.
Data set [5] has as its system Trypanosoma brucei brucei. In words: Antiparasitic activity against Trypanosoma brucei brucei TREU667 infected in mouse assessed as decrease in parasitemia at 50 mg/kg, bid administered via oral gavage on day 21 to 34 post infection measured on day 34 by microscopic method. In kind it is functional, organism-based.
Data set [6] relates to Liver. In words: Half life in mouse liver microsomes at 1.5 uM by LC-MS analysis. The class given is ADME, microsome. Background: Microsomes from liver hold many membrane-bound enzymes, among them those of drug oxidation.
Data set [7] is described as follows: Cmax in mouse at 50 mg/kg, po by LC-MS analysis. More on the design: dose 50 mg/kg, route oral. The class given is ADME, organism-based. The note with it: in vivo.
For data set [8], the system named is Trypanosoma brucei brucei. Kind of data set: Antiparasitic activity against Trypanosoma brucei brucei TREU667 infected in mouse assessed as decrease in parasitemia at 50 mg/kg, bid administered via oral gavage on day 21 to 34 post infection measured on day 41 to 42 by microscopic method. In kind it is functional, organism-based.
Data set [9] has as its system Trypanosoma brucei rhodesiense. In words: Antiparasitic activity against Trypanosoma brucei rhodesiense STIB900 infected in Swiss-Webster mouse assessed as cure rate at 50 mg/kg, bid administered via oral gavage from day 2 to 5 post infection measured after 60 days by microscopic method relative to control. In kind it is functional.
Data set [10] deals with Trypanosoma brucei brucei. In words: Antiparasitic activity against Trypanosoma brucei brucei BF427 assessed as growth inhibition at 16 times EC50 pretreated for 24 hrs followed by compound washout measured after 10 days by light microscopic method. The class given is functional.
The nature of data set [11]: AUC (0 to 8 hrs) in mouse at 50 mg/kg, po by LC-MS analysis. More on the design: dose 50 mg/kg, time < 8 hr, route oral. In kind it is ADME, organism-based. The note with it: in vivo.
Data set [12] has as its system Liver. In words: Half life in human liver microsomes at 1.5 uM by LC-MS analysis. The class given is ADME, microsome.
Data set [13] relates to Trypanosoma brucei brucei. Kind of data set: Antiparasitic activity against Trypanosoma brucei brucei BF427 assessed as growth inhibition at 4 times EC50 pretreated for 96 hrs followed by compound washout measured after 10 days by light microscopic method. The class given is functional.
A short description of data set [14]: Ratio of drug level in brain to plasma in mouse at 5 mg/kg, ip after 1 hr by LC-MS analysis. The class given is ADME, organism-based.
Data set [15] relates to Trypanosoma brucei brucei. Kind of data set: Antiparasitic activity against Trypanosoma brucei brucei TREU667 infected in mouse assessed as decrease in parasitemia at 50 mg/kg, bid administered via oral gavage on day 21 to 34 post infection measured on day 35 by microscopic method. In kind it is functional, organism-based.
Data set [16] has as its system Trypanosoma brucei brucei. In words: Antiparasitic activity against Trypanosoma brucei brucei BF427 assessed as growth inhibition after 48 hrs by Alamar blue assay. The note with it: BF427, 48 h. In kind it is functional.
The subject of data set [17] is Trypanosoma brucei brucei. Kind of data set: Antiparasitic activity against Trypanosoma brucei brucei BF427 assessed as growth inhibition at 64 times EC50 pretreated for 96 hrs followed by compound washout measured after 10 days by light microscopic method. The class given is functional.
The subject of data set [18] is Trypanosoma brucei brucei. In words: Antiparasitic activity against Trypanosoma brucei brucei BF427 assessed as growth inhibition at 128 times EC50 pretreated for 24 hrs followed by compound washout measured after 10 days by light microscopic method. In kind it is functional.
Data set [19] relates to Trypanosoma brucei brucei. In words: Antiparasitic activity against Trypanosoma brucei brucei BF427 assessed as growth inhibition at 64 times EC50 pretreated for 72 hrs followed by compound washout measured after 10 days by light microscopic method. The class given is functional.
The test system of data set [20] is Trypanosoma brucei brucei. Kind of data set: Antiparasitic activity against Trypanosoma brucei brucei BF427 assessed as growth inhibition at 128 times EC50 pretreated for 48 hrs followed by compound washout measured after 10 days by light microscopic method. In kind it is functional.
Data set [21] concerns Trypanosoma brucei brucei. Kind of data set: Antiparasitic activity against Trypanosoma brucei brucei BF427 assessed as growth inhibition at 32 times EC50 pretreated for 96 hrs followed by compound washout measured after 10 days by light microscopic method. The class given is functional.
Data set [22] relates to Trypanosoma brucei brucei. Kind of data set: Antiparasitic activity against Trypanosoma brucei brucei BF427 assessed as growth inhibition at 16 times EC50 pretreated for 72 hrs followed by compound washout measured after 10 days by light microscopic method. The class given is functional.
For data set [23], the system named is Trypanosoma brucei brucei. In words: Antiparasitic activity against Trypanosoma brucei brucei BF427 assessed as growth inhibition at 32 times EC50 pretreated for 48 hrs followed by compound washout measured after 10 days by light microscopic method. The class given is functional.
In a further data set the target is Cytochrome P450 3A4 (Homo sapiens, UniProt P08684). Kind of data set: Inhibition of human CYP3A4. In kind it is ADME.
The test system of data set [24] is Trypanosoma brucei rhodesiense. In words: Antiparasitic activity against Trypanosoma brucei rhodesiense STIB900 infected in Swiss-Webster mouse assessed as parasitemia rebound time at 50 mg/kg, bid administered via oral gavage from day 2 to 5 post infection by microscopic method. In kind it is functional.
Data set [25] relates to Trypanosoma brucei rhodesiense. In words: Antiparasitic activity against Trypanosoma brucei rhodesiense STIB900 assessed as growth inhibition after 48 hrs by Alamar blue assay. In kind it is functional. To be noted: STIB900, 48 h.
Data set [26] has as its system Trypanosoma brucei brucei. Kind of data set: Antiparasitic activity against Trypanosoma brucei brucei TREU667 infected in mouse assessed as decrease in parasitemia at 50 mg/kg, bid administered via oral gavage on day 21 to 34 post infection measured on day 40 by microscopic method. The class given is functional, organism-based.

Calls of active or inactive are those of the source. The calls are words filed in the database; no cut-off is given here. Some results are limits rather than exact numbers.

Chain of Cytochrome P450 3A4 (P08684 whole entry): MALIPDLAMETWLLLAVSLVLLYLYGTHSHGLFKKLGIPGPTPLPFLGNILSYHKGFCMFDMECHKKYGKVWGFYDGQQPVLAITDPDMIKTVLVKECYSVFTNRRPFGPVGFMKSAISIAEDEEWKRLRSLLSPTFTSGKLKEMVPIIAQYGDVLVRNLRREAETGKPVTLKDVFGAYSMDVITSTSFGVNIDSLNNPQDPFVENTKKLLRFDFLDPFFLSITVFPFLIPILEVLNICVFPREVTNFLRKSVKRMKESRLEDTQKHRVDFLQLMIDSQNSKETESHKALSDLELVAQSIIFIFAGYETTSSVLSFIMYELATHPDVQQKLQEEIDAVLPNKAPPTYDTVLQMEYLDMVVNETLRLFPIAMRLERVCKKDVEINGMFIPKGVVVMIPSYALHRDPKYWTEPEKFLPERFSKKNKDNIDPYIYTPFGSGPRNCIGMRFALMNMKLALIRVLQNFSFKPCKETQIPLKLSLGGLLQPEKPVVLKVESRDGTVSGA

On to `CC(C)c1ccc(COc2ccc(N(CCN)C(=O)c3cccnc3Cl)cc2)cc1.Cl`, for which the result in data set [1], in data set [5] and in data set [15] was Active. For the same compound, the CC50 was 4.03 µM in data set [2] and 10.5 µM in the data set with HepG2. Moreover, the “growth inhibition (GI)” value in data set [3], in data set [4], in data set [10] and in [13] was “Active” throughout. In addition, the t1/2 in the data set on Liver [6] and in the data set on Liver [12] was over 60 min throughout. This compound registered a Cmax in data set [7] of 1890 nM. Further, the result in [8] was inactive. In addition, in data set [9], the Activity is given as 67 - 80%. For the same compound, the AUC(0-t) at 8 h in [11] is 12.3 µM·h. Further, the BPR in [14] is 0.16. Moreover, the EC50 in data set [16] was 2 nM.
With `Cl.NCCN(C(=O)c1ccccc1C(F)(F)F)c1ccc(OCc2ccc(Cl)cc2)cc1`, the CC50 in data set [2] was 3.08 µM; in the data set on HepG2 it was 5.72 µM. In [7], this compound showed a Cmax of 1670 nM. Besides, the “growth inhibition (GI)” value in data set [17], in data set [18], in data set [19] and in data set [20] was “Active” each time. Also, the Activity in data set [9] amounted to 33%. Also, the AUC(0-t) at 8 h in [11] was 10.3 µM·h. In addition, the t1/2 in the data set on Liver [12] is recorded as over 60 min. For the same compound, in data set [14], the BPR was 0.88. Further, in data set [16], the EC50 was 7 nM.
With `CC(C)c1ccc(COc2ccc(N(CCN)C(=O)c3ccc(Cl)cc3Cl)cc2)cc1.Cl`, the “growth inhibition (GI)” value in data set [21], in data set [22], in [23] and in data set [10] was “Active” each time. Besides, the CC50 amounted to 3.1 µM in data set [2] and 3.19 µM in the data set on HepG2. The compound further displayed a Cmax in [7] of 1490 nM. Further, the IC50 at Cytochrome P450 3A4 was found to be 15 nM. Besides, in [9], the Activity is recorded as 67 - 80%. In [11], this compound had an AUC(0-t) at 8 h of 21 µM·h. The same compound had a t1/2 with Liver [12] of over 60 min. Moreover, the BPR in [14] came out at 0.32.
On to `CC(C)c1ccc(COc2ccc(N(CCN)C(=O)c3cccnc3C(F)(F)F)cc2)cc1.Cl`, for which the result in data set [1], in data set [5] and in [15] was Active. Also, the Time in data set [24] was determined as 31 days. Moreover, the CC50 was 2.03 µM in data set [2] and 3.83 µM with HepG2. The results for the concentration for a half-maximal effect (EC50) in data set [25] and in [16] were 2 nM and 1 nM, respectively. In data set [26], the outcome was inactive. The concentration in [7] peaked (Cmax) at 1000 nM. For the same compound, inhibition against Cytochrome P450 3A4 was half-maximal at 144 nM (IC50). Further, the Activity in data set [9] is 67 - 80%. Also, the AUC(0-t) at 8 h in [11] is 5.58 µM·h. Also, the t1/2 with Liver [12] is reported as over 60 min. The BPR in data set [14] came out at 0.23.
